Laboratory results reported in patent US20170008841A1, “CRYSTAL FORMS OF ASTAXANTHIN” (DSM IP ASSETS B.V., priority 2008, published 2017).
Values after ≈ are worked out from the molar mass of the structure shown. Read-outs that look alike come from different tables or passages of the source. Values belong to the molecule of their own block, whether it stands above or below them.

Tests used:
Type in all cases: physicochemical
[1] = Solubility measurements of astaxanthin form I and II in different solvents
Method: The solubilities of astaxanthin form I and II in different solvents were compared. Due to the very low solubility in some solvents (Isopropanol and corn oil), experiments in these two solvents were measured by using an UV-VIS meter. The saturated solutions were prepared at different temperature in a double jacked vessel and 1 ml of the solution was taken out and measured by the UV-VIS meter. To calculate the real concentration in these solvents, the calibration was made firstly by building up the correlation between absorbance unit and solution concentration.

[2] = Ideal solubility calculated of forms I and II in DCM from melting points and heat of fusion (DSC data)
Text: The ideal solubility can be estimated by using the equation with measured melting points and heat of fusion form DCS data.

[3] = Solvent-mediated transformation, slurry conversion experiments (XRPD of resulting crystals)
Method: Solvent-mediated polymorphic transformation is an efficient technique to study the phase stability of different crystal forms in various solvents. […] As transformation rates in different solvents vary from minutes to years, an appropriate solvent should be chosen to either facilitate or retard the transformation.
Currently, the choice of a solvent is still done by trial and error, which is time consuming. In accordance with the present invention, the stability test was carried out by the slurry conversion experiments in six different solvents. Form II (and in one case form I) is suspended as the initial form and the resulting crystals were analyzed by XRPD.

[4] = Stability of forms I and II in solid form / solid formulations (UV retention)
Method: Two solid formulations of the crystal forms I and II were prepared according to methods mentioned above. The formulations have been analyzed by Raman spectroscopy and—with regard to stability—by UV retention, a commonly used method for stability measurements.
The samples used in this experiment are: • Sample A: crystal form I prepared with methylene chloride • Sample B: crystal form II prepared with chloroform • For both formulations a matrix-composition consisting of a H2O-phase (Ca-Lignosulfonate & Yellow dextrin) and a Oil-phase (CH2Cl2) have been used. • Sample C: As a control commercial product Carophyll Pink 10%-CWS from DSM Nutritional Products Ltd was used. • In this case the following matrix-composition was used: H2O-phase: Ca-Lignosulfonate & Yellow dextrin; Oil-phase: CH2Cl2, & d,l-a-tocopherol, bees wax.)

Solubility [1]: 200.0 mg · 100 ml^−1
solubility [1]: 10 to 20 mg/mL (≈ 16.8 to 33.5 mM)
Conc. (ideal solubility calculated) [2]: 0.00 g/mL
Final form after slurry conversion ([3]; Chloroform, 1 day, 20 ° C.): form II
stable in solid form [4]: at least 5 months
stable in solid form ([4]; 20° C.-40° C.): at least 90 days
Structure (SMILES): CC1=C(/C=C/C(C)=C/C=C/C(C)=C/C=C/C=C(C)/C=C/C=C(C)/C=C/C2=C(C)C(=O)[C@@H](O)CC2(C)C)C(C)(C)C[C@H](O)C1=O (relative stereo) [form I, all-trans-astaxanthin]

Solubility ([1]; Acetone, 20° C.): 9.0 mg · 100 ml^−1
Solubility ([1]; DCM, 20° C.): 1082.0 mg · 100 ml^−1
Conc. ([1]; DCM, Exp. T 12.00 ° C.): 0.02 g/mL
Ln X ([1]; DCM, Exp. T 12.00 ° C.): −6.19
Ratio (Conc.) form II to form I ([1]; DCM, Exp. T 12.00 ° C.): 1.68
Conc. ([1]; DCM, Exp. T 21.80 ° C.): 0.02 g/mL
Ln X ([1]; DCM, Exp. T 21.80 ° C.): −5.96
Ratio (Conc.) form II to form I ([1]; DCM, Exp. T 21.80 ° C.): 1.83
Conc. ([1]; DCM, Exp. T 30.70 ° C.): 0.04 g/mL
Ln X ([1]; DCM, Exp. T 30.70 ° C.): −5.52
Ratio (Conc.) form II to form I ([1]; DCM, Exp. T 30.70 ° C.): 1.54
Solubility ([1]; EtOAc, 20° C.): 10.0 mg · 100 ml^−1
Solubility ([1]; EtOH, 20° C.): 11.8 mg · 100 ml^−1
Solubility ([1]; IPA, 20° C.): 6.0 mg · 100 ml^−1
solubility in Isopropanol ([1]; Isopropanol, 30° C.): 3.4 mg·100 ml^−1
solubility in acetone ([1]; acetone, 20.5° C.): approximately 8 mg·100 ml^−1
Conc. (ideal solubility calculated) ([2]; DCM, Cal. T 12.00 ° C.): 0.02 g/mL
Ratio (Conc.) form II to form I (ideal solubility calculated) ([2]; DCM, Cal. T 12.00 ° C.): 3530.79
Conc. (ideal solubility calculated) ([2]; DCM, Cal. T 21.80 ° C.): 0.04 g/mL
Ratio (Conc.) form II to form I (ideal solubility calculated) ([2]; DCM, Cal. T 21.80 ° C.): 1927.23
Conc. (ideal solubility calculated) ([2]; DCM, Cal. T 30.70 ° C.): 0.06 g/mL
Ratio (Conc.) form II to form I (ideal solubility calculated) ([2]; DCM, Cal. T 30.70 ° C.): 1151.20
Conc. (ideal solubility calculated) ([2]; DCM, Cal. T 39.00 ° C.): 0.08 g/mL
Ratio (Conc.) form II to form I (ideal solubility calculated) ([2]; DCM, Cal. T 39.00 ° C.): 731.67
Final form after slurry conversion ([3]; DCM, 1 day, 20 ° C.): form I
Final form after slurry conversion ([3]; EtOAc, 4 days, 40 ° C.): form I
stable in solid form ([4]; 20° C.): at least 90 days
Structure (SMILES): CC1=C(/C=C/C(C)=C/C=C/C(C)=C/C=C/C=C(C)/C=C/C=C(C)/C=C/C2=C(C)C(=O)[C@@H](O)CC2(C)C)C(C)(C)C[C@H](O)C1=O (relative stereo) [form II, all-trans-astaxanthin]
